Common to all, as to format: in vivo
Experiment [1] deals with Phytophthora infestans. Conditions: tomato late blight, sprayed 17 h after inoculation.
A further experiment relates to Plasmopara viticola. As to the kind of experiment: Test A: grape downy mildew, spray after inoculation, visual disease rating (% disease control). The following applies: 100 = 100% disease control, 0 = no control. An excerpt: General protocol for preparing test suspensions for Test A-C: The test compounds were first dissolved in acetone in an amount equal to 3% of the final volume and then suspended at the desired concentration (in ppm) in acetone and purified water (50/50 mix by volume) containing 250 ppm of the surfactant Trem® 014 (polyhydric alcohol esters). The resulting test suspensions were then used in Tests A-C. Spraying a 200 ppm test suspension to the point of run-off on the test plants was equivalent to a rate of 500 g/ha.
Grape seedlings were inoculated with a spore suspension of Plasmopara viticola (the causal agent of grape downy mildew) and incubated in a saturated atmosphere at 20° C. for 24 h. After a short drying period, the test suspension was sprayed to the point of run-off on the grape seedlings, which were then moved to a growth chamber at 20° C. for 5 days, after which time the grape seedling were placed back into a saturated atmosphere at 20° C. for 24 h. Upon removal, visual disease ratings were made.
Results for Tests A-C are given in Table A. In the table, a rating of 100 indicates 100% disease control and a rating of 0 indicates no disease control (relative to the controls). A dash (-) indicates no test results, “*” indicates compound was tested at 40 ppm and “**” indicates compound was tested at 10 ppm.

Experiment [2] relates to Phytophthora infestans. The following applies: tomato late blight, sprayed the day before inoculation.
The mark [3] stands for this setting: Cmpd No. unmarked, rate not stated in table (b1197 mentions a 200 ppm test suspension).

Where two headings read alike, the source gives them in different places.

As for `CS(=O)(=O)CC(=O)N1CCC(c2nc(C3=NOC(c4c(F)cccc4F)C3)cs2)CC1` (stereo not drawn) [compound 62], the “Test C rating (% disease control)” value in the experiment with Phytophthora infestans [1] ("*" compound tested at 40 ppm) amounted to 95%. Also, in the experiment on Plasmopara viticola ("*" compound tested at 40 ppm), the “Test A rating (% disease control)” value is reported as 99%. In the experiment on Phytophthora infestans [2] ("*" compound tested at 40 ppm), the “Test B rating (% disease control)” value stood at 99%.

Take `CC(C)CC(=O)C(=O)N1CCC(c2nc(C3=NOC(c4c(F)cccc4F)C3)cs2)CC1` (stereo not drawn) [compound 69]: in the experiment on Phytophthora infestans [1] ("*" compound tested at 40 ppm), the “Test C rating (% disease control)” value worked out at 64%. Further, the “Test A rating (% disease control)” value in the experiment with Plasmopara viticola ("*" compound tested at 40 ppm) is reported as 99%. Also, the “Test B rating (% disease control)” value with Phytophthora infestans [2] ("*" compound tested at 40 ppm) is reported as 84%.

Consider `CC(C)C(=O)C(=O)N1CCC(c2nc(C3=NOC(c4c(F)cccc4F)C3)cs2)CC1` (stereo not drawn) [compound 68], for which the “Test C rating (% disease control)” value in the experiment with Phytophthora infestans [1] ("*" compound tested at 40 ppm) is on record as 93%. The “Test A rating (% disease control)” value with Plasmopara viticola ("*" compound tested at 40 ppm) amounted to 99%. For the same molecule, the “Test B rating (% disease control)” value with Phytophthora infestans [2] ("*" compound tested at 40 ppm) is given as 100%.

Take `CN(C)C(=O)N1CCC(c2nc(C3=NOC(c4ccccc4)C3)cs2)CC1` (stereo not drawn) [compound 11]: the “Test C rating (% disease control)” value with Phytophthora infestans [1] (setting [3]) is reported as 0%. The “Test A rating (% disease control)” value in the experiment with Plasmopara viticola (setting [3]) was 0%. For the same molecule, the “Test B rating (% disease control)” value with Phytophthora infestans [2] (setting [3]) turned out to be 0%.

Consider `CCCCCCC(=O)N1CCC(c2nc(C3=NOC(c4c(F)cccc4F)C3)cs2)CC1` (stereo not drawn) [compound 73], for which, in the experiment with Phytophthora infestans [1] ("*" compound tested at 40 ppm), the “Test C rating (% disease control)” value was determined as 99%. In addition, the “Test A rating (% disease control)” value in the experiment with Plasmopara viticola ("*" compound tested at 40 ppm) worked out at 99%. In addition, the “Test B rating (% disease control)” value in the experiment on Phytophthora infestans [2] ("*" compound tested at 40 ppm) was 100%.

Take `CCC(C)C(=O)C(=O)N1CCC(c2nc(C3=NOC(c4c(F)cccc4F)C3)cs2)CC1` (stereo not drawn) [compound 70]: in the experiment on Phytophthora infestans [1] ("*" compound tested at 40 ppm), the “Test C rating (% disease control)” value is 88%. Besides, the “Test A rating (% disease control)” value with Plasmopara viticola ("*" compound tested at 40 ppm) came out at 100%. Moreover, the “Test B rating (% disease control)” value with Phytophthora infestans [2] ("*" compound tested at 40 ppm) is reported as 100%.

`CNC(=Nc1cc(C)ccc1C)N1CCC(c2nc(C3=NOC(c4c(F)cccc4F)C3)cs2)CC1` (stereo not drawn) [compound 35]: the “Test C rating (% disease control)” value in the experiment with Phytophthora infestans [1] ("*" compound tested at 40 ppm) is given as 26%. The “Test A rating (% disease control)” value in the experiment with Plasmopara viticola ("*" compound tested at 40 ppm) was found to be 0%. In the experiment with Phytophthora infestans [2] ("*" compound tested at 40 ppm), the “Test B rating (% disease control)” value was 86%.

Source of the values: patent publication US8349870B2 (priority 2008, dated 2013).
